Some test systems named below: MOLT-4 leukemia; SK-MEL-5 melanoma; CCRF-CEM leukemia; EKVX NSCLC; A549 NSCLC; DU-145 prostate; HOP-62 NSCLC; SF-539 CNS; SW-620 colon; UO-31 renal.
Common to all, as to test: DTP human tumour cell line panel, 48 h

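Following 48 hours of exposure in 96-well plates, responses at five concentrations were used to interpolate endpoints linearly. GI50 = concentration required for 50% inhibition of growth. At the TGI there is no net growth.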 Bounds are passed on as bounds.

With `CC(=O)C1=C(C)N(C)C2(O)C=CC(=O)C3=C(O)c4ccccc4C(=O)C312` (stereo not given), the GI50 (commonly the concentration that inhibits growth by half) is 3.53 µM in the assay on MOLT-4 leukemia; 2.51 µM in the assay with SK-MEL-5 melanoma; 1.92 µM in the assay with CCRF-CEM leukemia; 15.3 µM in the assay with EKVX NSCLC; 23 µM in the assay with A549 NSCLC; 5.27 µM in the assay on DU-145 prostate. The GI50 is 5.16 µM in the assay with HOP-62 NSCLC, 2.76 µM in the assay on SF-539 CNS, 4.41 µM in the assay on SW-620 colon and 27 µM in the assay on UO-31 renal. Also, the TGI (in general, the concentration giving total growth inhibition) is more than 100 µM with MOLT-4 leukemia; 9.02 µM in the assay on SK-MEL-5 melanoma; more than 100 µM with CCRF-CEM leukemia; 33.4 µM in the assay with EKVX NSCLC; more than 100 µM with A549 NSCLC; 21.8 µM in the assay on DU-145 prostate. Also, the TGI in the assay on HOP-62 NSCLC was 18.4 µM; in the assay on SF-539 CNS, 6.55 µM; in the assay with SW-620 colon, 33.5 µM; in the assay on UO-31 renal, more than 100 µM.

Take `CC1(C)C(=O)/C=C\C(=O)C(C)(C)C(=O)/C=C\C(=O)C(C)(C)C(=O)/C=C\C(=O)C(C)(C)C(=O)/C=C\C1=O`: the TGI in the assay with MOLT-4 leukemia was 26.7 µM; in the assay on SK-MEL-5 melanoma it was 56.2 µM; in the assay with CCRF-CEM leukemia, 23.4 µM; with EKVX NSCLC, 69.6 µM; in the assay on A549 NSCLC, more than 100 µM; with DU-145 prostate, more than 100 µM. In addition, the TGI is more than 100 µM in the assay on HOP-62 NSCLC, 55.8 µM in the assay on SF-539 CNS, 28.1 µM with SW-620 colon and 56 µM with UO-31 renal.

Turning to `CCC(=O)Nc1ccccc1C#C/C=C\C#Cc1ccccc1C(F)(F)F`, the GI50 with MOLT-4 leukemia is 4.11 µM; in the assay with SK-MEL-5 melanoma, 5.44 µM; in the assay on CCRF-CEM leukemia it was 2.4 µM; with EKVX NSCLC, 1.06 µM; in the assay with A549 NSCLC, 2.53 µM; in the assay with DU-145 prostate it was 2.28 µM. In addition, the GI50 in the assay on HOP-62 NSCLC was 2.42 µM; with SF-539 CNS, 4.2 µM; with SW-620 colon it was 1.73 µM; in the assay on UO-31 renal, 2.59 µM. Besides, the TGI with MOLT-4 leukemia is more than 23.3 µM; in the assay with SK-MEL-5 melanoma it was 18.1 µM; in the assay with CCRF-CEM leukemia it was more than 20 µM; in the assay with EKVX NSCLC, 25.2 µM; in the assay with A549 NSCLC, more than 32.6 µM; with DU-145 prostate, 22.3 µM. The TGI with HOP-62 NSCLC is more than 50 µM; in the assay on SF-539 CNS it was 13.1 µM; in the assay on SW-620 colon it was more than 24.4 µM; in the assay with UO-31 renal, more than 50 µM.

For the origin of these results see PubChem BioAssay (NCI).
